Reference: patent USRE40086E1, “Method for treating bacterial infection with novel 7-substituted-9-substituted amino 6-demethyl-6-deoxytetracyclines” (Wyeth Holdings Corporation, priority 1991, dated 2008)
Where a name gives a salt, the structure may show the parent alone.

Experiments:
[1] = system: S. aureus UBMS 88-5 (tetM); test: MIC, agar dilution; format: cell-based
[2] = system: S. aureus UBMS 88-4 (Sensitive); test: MIC, agar dilution; format: cell-based
[3] = system: S. aureus UBMS 90-1 (tetM); test: MIC, agar dilution; format: cell-based
[4] = system: S. aureus UBMS 90-3 (Sensitive); test: MIC, agar dilution; format: cell-based
E. coli UBMS 90-4 (tetM) = test: MIC, agar dilution; format: cell-based
[5] = system: N. gonorrhoeae 6418 (tetM); test: MIC, agar dilution; format: cell-based; conditions: Neisseria gonorrhoeae
[6] = system: E. faecalis UBMS 90-6 (tetM); test: MIC, agar dilution; format: cell-based; conditions: Enterococcus faecalis
[7] = system: E. faecalis UBMS 90-7 (tetM); test: MIC, agar dilution; format: cell-based; conditions: Enterococcus faecalis
[8] = system: Staphylococcus aureus, methicillin-susceptible; test: MIC vs recent clinical and agricultural isolates (Table V, KK); format: cell-based; conditions: [15] tested
Enterococcus faecalis = test: as above; format: cell-based; conditions: [10] tested
Enterococcus faecium = test: as above; format: cell-based; conditions: [10] tested
Streptococcus pyogenes = test: as above; format: cell-based; conditions: [10] tested
Streptococcus agalactiae = test: as above; format: cell-based; conditions: [10] tested
Streptococcus pneumoniae = test: as above; format: cell-based; conditions: [10] tested
Listeria monocytogenes = test: as above; format: cell-based; conditions: [8] tested
Klebsiella oxytoca = test: as above; format: cell-based; conditions: [10] tested
Citrobacter freundii = test: as above; format: cell-based; conditions: [10] tested
Citrobacter diversus = test: as above; format: cell-based; conditions: [10] tested
Enterobacter cloacae = test: as above; format: cell-based; conditions: [10] tested
Enterobacter aerogenes = test: as above; format: cell-based; conditions: [10] tested
Proteus mirabilis = test: as above; format: cell-based; conditions: [26] tested
Proteus vulgaris = test: as above; format: cell-based; conditions: [18] tested
Pseudomonas aeruginosa = test: as above; format: cell-based; conditions: [10] tested
Xanthomonas maltophilia = test: as above; format: cell-based; conditions: [10] tested
Moraxella catarrhalis = test: as above; format: cell-based; conditions: [18] tested
Haemophilus influenzae = test: as above; format: cell-based; conditions: [15] tested
[9] = system: Pasturella multocida (Agricultural & Clinical); test: as above; format: cell-based; conditions: [17] tested
[10] = system: Bordetella bronchiseptica (Agricultural); test: as above; format: cell-based; conditions: [10] tested
[11] = system: Bacertoides fragilis group; test: as above; format: cell-based; conditions: [10] tested
Clostridium perfringens = format: cell-based; conditions: [16] tested
[12] = system: E. coli cell-free ribosomes, strain MRE 600 (TC Sensitive Host); test: E. coli in vitro cell free protein translation system (Table VI); format: biochemical
[13] = system: E. coli cell-free ribosomes, strain MRE 600 (tetM) (Tet M Host); test: as above; format: biochemical
[14] = system: tetracycline-susceptible E. coli; test: Resumption of bacterial growth after washing out the antibiotic (reversibility of binding); format: cell-based; conditions: 30 minutes at growth inhibitory concentrations, then centrifugation and fresh medium
Procedure: The antibiotics are added to exponentially growing cultures of tetracycline-susceptible E. coli at growth inhibitory concentrations. After 30 minutes, excess antibiotic is removed from the bacteria by centrifugation and the organism is resuspended in fresh growth medium. The ability of bacteria to resume growth is monitored. […] This reflects the different binding characteristics of the drugs.

[15] = system: S. aureus UBMS 90-2 (tetM); test: MIC, agar dilution; format: cell-based; conditions: S. aureus UBMS 90-2 TetM; Table IA; unit assumed
[16] = system: S. aureus UBMS 88-7 (tetK); test: MIC, agar dilution; format: cell-based; conditions: S. aureus UBMS 88-7 TetK; Table IA; unit assumed
[17] = system: S. aureus IVES 2943 (meth. resistant); test: MIC, agar dilution; format: cell-based; conditions: S. aureus IVES 2943; Table IA; unit assumed
[18] = system: S. aureus IVES 1983 (meth. resistant); test: MIC, agar dilution; format: cell-based; conditions: S. aureus IVES 1983; Table IA; unit assumed
[19] = system: S. aureus ATCC 29213 (Sensitive); test: MIC, agar dilution; format: cell-based; conditions: S. aureus ATCC 29213; Table IA; unit assumed
[20] = system: S. aureus Smith (Sensitive); test: MIC, agar dilution; format: cell-based; conditions: S. aureus SMITH (MP); Table IA; unit assumed
[21] = system: S. haemolyticus AVAH 88-3; test: MIC, agar dilution; format: cell-based; conditions: S. hemolyticus AVHAH 88-3; Table IA; unit assumed
E. faecalis 12201 = test: MIC, agar dilution; format: cell-based; conditions: Enterococcus 12201; Table IA; unit assumed
E. faecalis ATCC 29212 = test: MIC, agar dilution; format: cell-based; conditions: E. faecalis ATCC 29212; Table IA; unit assumed
E. coli UBMS 88-1 (tetB) = test: MIC, agar dilution; format: cell-based; conditions: E. coli UBMS 88-1 TetB; Table IA; unit assumed
E. coli UBMS 89-1 (tetM) = test: MIC, agar dilution; format: cell-based; conditions: E. coli UBMS 89-1 TetM; Table IA; unit assumed
[22] = system: E. coli UBMS 89-2 (Sensitive); test: MIC, agar dilution; format: cell-based; conditions: E. coli UBMS 89-2 Tet Sens.; Table IA; unit assumed
E. coli ATCC 25922 = test: MIC, agar dilution; format: cell-based; conditions: E. coli ATCC 25922; Table IA; unit assumed
S. aureus SMITH (sens) [23] = test: In vivo antibacterial evaluation, acute lethal infection in mice; conditions: Oral
Source text: In Vivo Antibacterial Evaluation (Table VII)

E. coli MC4100 Tet sens. = test: MIC, agar dilution (Table IA); format: cell-based; conditions: unit assumed
E. coli MC4100 TetB = test: MIC, agar dilution (Table IA); format: cell-based; conditions: unit assumed
E. coli PRP1 TetA = test: MIC, agar dilution (Table IA); format: cell-based; conditions: unit assumed
E. coli J3272 TetC = test: MIC, agar dilution (Table IA); format: cell-based; conditions: unit assumed
E. coli J2175 = test: MIC, agar dilution (Table IA); format: cell-based; conditions: unit assumed
E. coli BAJ9003 = test: MIC, agar dilution (Table IA); format: cell-based; conditions: unit assumed
E. coli UBMS 90-5 = test: MIC, agar dilution (Table IA); format: cell-based; conditions: unit assumed
E. coli #311 (MP) = test: MIC, agar dilution (Table IA); format: cell-based; conditions: unit assumed
E. coli J3272 TetD = test: MIC, agar dilution (Table IA); format: cell-based; conditions: unit assumed
S. mariescens FDOR 8733 = test: MIC, agar dilution (Table IA); format: cell-based; conditions: unit assumed
[24] = system: X. maltophilia NEMC 87210; test: MIC, agar dilution (Table IA); format: cell-based; conditions: unit assumed
[25] = system: Ps. acruginosa ATCC 27853; test: MIC, agar dilution (Table IA); format: cell-based; conditions: unit assumed
S. aureus NEMC 8769/89-4 = test: MIC, agar dilution (Table IA); format: cell-based; conditions: unit assumed
S. aureus ROSE (MP) = test: MIC, agar dilution (Table IA); format: cell-based; conditions: unit assumed
S. aureus SMITH (sens) [26] = test: In vivo antibacterial evaluation, acute lethal infection in mice; conditions: Intraveneous

CN(C)[C@@H]1C(O)=C(C(N)=O)C(=O)[C@@]2(O)C(O)=C3C(=O)c4c(O)cccc4[C@@](C)(O)[C@H]3C[C@@H]12 [TC, Tetracycline hydrochloride]
MIC ([1]; Staphylococcus aureus): 32 µg/mL | MIC ([2]; Staphylococcus aureus, S. aureus UBMS 88-4 (Sensitive), read-out: MIC): 0.12 µg/mL | MIC ([3]; Staphylococcus aureus): 32 µg/mL | MIC ([4]; Staphylococcus aureus, S. aureus UBMS 90-3 (Sensitive), read-out: MIC): 0.12 µg/mL | MIC (E. coli UBMS 90-4 (tetM); Escherichia coli): 64 µg/mL | MIC [5]: > 32 µg/mL | MIC [6]: 32 µg/mL | MIC [7]: 32 µg/mL | MIC (range over isolates) [8]: 0.12 to 1 µg/mL | MIC (range over isolates) (Enterococcus faecalis): 0.12 to 64 µg/mL | MIC (range over isolates) (Enterococcus faecium): 0.12 to 64 µg/mL | MIC (range over isolates) (Streptococcus pyogenes): 0.12 to 16 µg/mL | MIC (range over isolates) (Streptococcus agalactiae): 0.25 to 64 µg/mL | MIC (range over isolates) (Streptococcus pneumoniae): 0.12 to 2 µg/mL | MIC (range over isolates) (Listeria monocytogenes): 0.12 to 0.5 µg/mL | MIC (range over isolates) (Klebsiella oxytoca): 0.5 to 1 µg/mL | MIC (range over isolates) (Citrobacter freundii): 0.5 to 16 µg/mL | MIC (range over isolates) (Citrobacter diversus): 0.5 to 4 µg/mL | MIC (range over isolates) (Enterobacter cloacae): 0.5 to 2 µg/mL | MIC (range over isolates) (Enterobacter aerogenes): 0.5 to 1 µg/mL | MIC (range over isolates) (Proteus mirabilis): 0.5 to 64 µg/mL | MIC (range over isolates) (Proteus vulgaris): 0.25 to 64 µg/mL | MIC (range over isolates) (Pseudomonas aeruginosa): 2 to 32 µg/mL | MIC (range over isolates) (Xanthomonas maltophilia): 8 to 16 µg/mL | MIC (range over isolates) (Moraxella catarrhalis): 0.06 to 0.5 µg/mL | MIC (range over isolates) (Haemophilus influenzae): 1 to 32 µg/mL | MIC (range over isolates) [9]: 0.06 to 16 µg/mL | MIC (range over isolates) [10]: 0.12 to 0.25 µg/mL | MIC (range over isolates) [11]: 0.25 to 32 µg/mL | MIC (range over isolates) (Clostridium perfringens): 0.015 to 16 µg/mL | IC50, concentration of antibiotic required to inhibit protein synthesis by 50% compared to a drug-free control [12]: 0.6 µg/mL | IC50, concentration of antibiotic required to inhibit protein synthesis by 50% compared to a drug-free control [13]: 2.0 µg/mL

CN(C)c1cc(NC=O)c(O)c2c1CC1CC3C(N(C)C)C(O)=C(C(N)=O)C(=O)C3(O)C(O)=C1C2=O (centres unmarked)
ability of bacteria to resume growth after excess antibiotic is removed by washing [14]: bacterial growth resumed when the compound was removed

polymyxin [reference compound]
ability of bacteria to resume growth after excess antibiotic is removed by washing [14]: continues to prevent bacterial growth even when excess antibiotic is removed

CCCCCCNCC(=O)Nc1cc(N(C)C)c2c(c1O)C(=O)C1=C(O)[C@]3(O)C(=O)C(C(N)=O)=C(O)[C@@H](N(C)C)C3CC1C2 (stereo partly drawn) [BBB, [4S-(4alpha,12aalpha)]-4,7-Bis(dimethylamino)-9-[[(hexylamino)acetyl]amino]-1,4,4a,5,5a,6,11,12a-octahydro-3,10,12,12a-tetrahydroxy-1,11-dioxo-2-naphthacenecarboxamide dihydrochloride]
Antibacterial activity (MIC) ([1]; S. aureus UBMS 88-5 TetM, Table IA, unit assumed): 0.5 µg/mL | Antibacterial activity (MIC) ([2]; S. aureus UBMS 88-4, Table IA, unit assumed): 0.25 µg/mL | Antibacterial activity (MIC) ([3]; S. aureus UBMS 90-1 TetM, Table IA, unit assumed): 0.25 µg/mL | Antibacterial activity (MIC) [15]: 0.25 µg/mL | Antibacterial activity (MIC) ([4]; S. aureus UBMS 90-3, Table IA, unit assumed): 0.06 µg/mL | Antibacterial activity (MIC) [16]: 2 µg/mL | Antibacterial activity (MIC) [17]: 4 µg/mL | Antibacterial activity (MIC) [18]: 4 µg/mL | Antibacterial activity (MIC) [19]: 0.25 µg/mL | Antibacterial activity (MIC) [20]: 0.12 µg/mL | Antibacterial activity (MIC) [21]: 0.5 µg/mL | Antibacterial activity (MIC) (E. faecalis 12201): 0.25 µg/mL | Antibacterial activity (MIC) (E. faecalis ATCC 29212): 0.12 µg/mL | Antibacterial activity (MIC) (E. coli UBMS 88-1 (tetB)): 0.5 µg/mL | Antibacterial activity (MIC) (E. coli UBMS 89-1 (tetM)): 0.25 µg/mL | Antibacterial activity (MIC) [22]: 0.25 µg/mL | Antibacterial activity (MIC) (E. coli ATCC 25922): 0.12 µg/mL | Antibacterial activity (MIC) (E. coli UBMS 90-4 (tetM); E. coli UBMS 90-4 TetM, Table IA, unit assumed): 0.25 µg/mL | ED50 (S. aureus SMITH (sens) [23]): 4 to 8 mg/kg | Antibacterial activity (MIC) (E. coli MC4100 Tet sens.): 0.25 µg/mL | Antibacterial activity (MIC) (E. coli MC4100 TetB): 0.5 µg/mL | Antibacterial activity (MIC) (E. coli PRP1 TetA): 0.5 µg/mL | Antibacterial activity (MIC) (E. coli J3272 TetC): 0.5 µg/mL | Antibacterial activity (MIC) (E. coli J2175): 0.25 µg/mL | Antibacterial activity (MIC) (E. coli BAJ9003): 0.06 µg/mL | Antibacterial activity (MIC) (E. coli UBMS 90-5): 0.25 µg/mL | Antibacterial activity (MIC) (E. coli #311 (MP)): 0.5 µg/mL | Antibacterial activity (MIC) (E. coli J3272 TetD): 0.12 µg/mL | Antibacterial activity (MIC) (S. mariescens FDOR 8733): 4 µg/mL | Antibacterial activity (MIC) [24]: 4 µg/mL | Antibacterial activity (MIC) [25]: 16 µg/mL | Antibacterial activity (MIC) (S. aureus NEMC 8769/89-4): 0.06 µg/mL | Antibacterial activity (MIC) (S. aureus ROSE (MP)): 16 µg/mL | ED50 (S. aureus SMITH (sens) [26]): 1.8 mg/kg
